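Dose response: 5 concentrations. Exposure: 48 h. Format: 96-well plates. Endpoint: linear interpolation; highest concentration if not reached. At the GI50, growth is halved.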 Activity calls are given as the source filed them. Rule as the data show it: active = GI50 up to about 1.1 µM and inactive = higher.
Assays:
Experiment in all cases: growth of human tumour cells (NCI), 48 h
[1] = test system: 786-0
[2] = test system: A549
[3] = test system: ACHN
[4] = test system: COLO 205
[5] = test system: HCT-116
[6] = test system: HOP-62
[7] = test system: HOP-92
[8] = test system: HT-29
[9] = test system: Hs-578T
[10] = test system: K562
[11] = test system: KM12
[12] = test system: M14
[13] = test system: MOLT-4
[14] = test system: NCI/ADR-RES
[15] = test system: OVCAR-4
[16] = test system: PC-3
[17] = test system: SF-268
[18] = test system: SK-MEL-28
[19] = test system: SK-MEL-5

Structure (SMILES)	GI50 [1]	GI50 [2]	GI50 [3]	GI50 [4]	GI50 [5]	GI50 [6]	GI50 [7]	GI50 [8]	GI50 [9]	GI50 [10]	GI50 [11]	GI50 [12]	GI50 [13]	GI50 [14]	GI50 [15]	GI50 [16]	GI50 [17]	GI50 [18]	GI50 [19]
CSc1nnnc2ccccc12	> 100 µM (inactive)	> 100 µM (inactive)	> 100 µM (inactive)	> 100 µM (inactive)	> 100 µM (inactive)	> 100 µM (inactive)	> 100 µM (inactive)	> 100 µM (inactive)	> 100 µM (inactive)	> 100 µM (inactive)	> 100 µM (inactive)	> 100 µM (inactive)	> 100 µM (inactive)	> 100 µM (inactive)	> 100 µM (inactive)	> 100 µM (inactive)	> 100 µM (inactive)	> 100 µM (inactive)	> 100 µM (inactive)
COc1ccc(C=C2C(C)=NN(c3cccc(Cl)c3)C23C(Cl)C(=O)N3c2nc3ccccc3s2)cc1 (stereo not given)	16 µM (inactive)		21.5 µM (inactive)		15.5 µM (inactive)	20 µM (inactive)	9.02 µM (inactive)	9.51 µM (inactive)	14.4 µM (inactive)	22.8 µM (inactive)	13.6 µM (inactive)	17.2 µM (inactive)	15.9 µM (inactive)	20.3 µM (inactive)	23.9 µM (inactive)	17.2 µM (inactive)	4.89 µM (inactive)	9.25 µM (inactive)	15.1 µM (inactive)
COc1nc(=O)n(C2CC(N=[N+]=[N-])C(CO)O2)cc1C (stereo not given)	> 100 µM (inactive)	> 100 µM (inactive)	> 100 µM (inactive)		> 100 µM (inactive)	> 100 µM (inactive)	> 100 µM (inactive)	> 100 µM (inactive)	> 100 µM (inactive)	> 100 µM (inactive)	> 100 µM (inactive)	> 100 µM (inactive)	> 100 µM (inactive)	> 100 µM (inactive)	> 100 µM (inactive)	> 100 µM (inactive)	> 100 µM (inactive)	> 100 µM (inactive)	> 100 µM (inactive)
O=CNc1ccc(S(=O)(=O)c2ccc(NC=O)cc2)cc1	> 100 µM (inactive)	> 100 µM (inactive)	> 100 µM (inactive)	> 100 µM (inactive)	> 100 µM (inactive)	> 100 µM (inactive)	> 100 µM (inactive)	> 100 µM (inactive)	> 100 µM (inactive)	> 100 µM (inactive)	> 100 µM (inactive)	> 100 µM (inactive)	> 100 µM (inactive)	> 100 µM (inactive)	> 100 µM (inactive)	> 100 µM (inactive)	> 100 µM (inactive)	> 100 µM (inactive)	> 100 µM (inactive)
CCCCN1C(=O)c2c(-c3sccc3N)sc(-c3sccc3N)c2C1=O	7.85 µM (inactive)	24.1 µM (inactive)	15.7 µM (inactive)	15.4 µM (inactive)	21.7 µM (inactive)	14.7 µM (inactive)	52 µM (inactive)	14.2 µM (inactive)	16.9 µM (inactive)	16.3 µM (inactive)	44.6 µM (inactive)	8.38 µM (inactive)	2.8 µM (inactive)	21.3 µM (inactive)	10.9 µM (inactive)	14.8 µM (inactive)	12.3 µM (inactive)	7.98 µM (inactive)	29.8 µM (inactive)
NCCNCCNc1ccc(NCCNCCN)c2c1C(=O)c1c(O)ccc(O)c1C2=O	> 100 µM (inactive)	> 100 µM (inactive)	> 100 µM (inactive)	> 100 µM (inactive)	> 100 µM (inactive)	> 100 µM (inactive)	> 100 µM (inactive)	> 100 µM (inactive)	68.7 µM (inactive)	> 100 µM (inactive)	> 100 µM (inactive)	> 100 µM (inactive)	14 µM (inactive)	> 100 µM (inactive)	> 100 µM (inactive)	> 100 µM (inactive)	> 100 µM (inactive)	> 100 µM (inactive)	> 100 µM (inactive)
C=CCOc1cccc(C2(O)c3ccccc3C3=NCCCN32)c1 (stereo not given)	8.49 µM (inactive)	5.6 µM (inactive)	3.63 µM (inactive)	15 µM (inactive)	10.9 µM (inactive)	6.84 µM (inactive)	21.8 µM (inactive)	8.57 µM (inactive)	28.6 µM (inactive)	4.58 µM (inactive)	7.48 µM (inactive)	12.4 µM (inactive)	10.2 µM (inactive)	> 35.2 µM (inactive)	15.5 µM (inactive)	10.3 µM (inactive)	54.7 µM (inactive)	5.51 µM (inactive)	17 µM (inactive)
C[C@]12CC[C@H](O)C[C@@H]1CC[C@@H]1[C@@H]2CC[C@]2(C)[C@@H](C3=CC(=O)OC3)CC[C@]12O	1.95 µM (inactive)	0.627 µM (active)	0.687 µM (active)	3.18 µM (inactive)	1.73 µM (inactive)	1.6 µM (inactive)	5.42 µM (inactive)	3.44 µM (inactive)	4.21 µM (inactive)	3.97 µM (inactive)	5.81 µM (inactive)	3.45 µM (inactive)	0.359 µM (active)	2.07 µM (inactive)	2.08 µM (inactive)	2.58 µM (inactive)	1.75 µM (inactive)	7.5 µM (inactive)	1.15 µM (inactive)
CSc1ccc2c(cc1=O)[C@@H](NC(=O)c1ccc([N+](=O)[O-])cc1)CCc1cc(O)c(O)c(O)c1-2	29.8 µM (inactive)	28.1 µM (inactive)	29.7 µM (inactive)	24.7 µM (inactive)	34.8 µM (inactive)	16.2 µM (inactive)	> 100 µM (inactive)	17.8 µM (inactive)	21.2 µM (inactive)	18.4 µM (inactive)	17.7 µM (inactive)	30.5 µM (inactive)	30.6 µM (inactive)	17.4 µM (inactive)	39.8 µM (inactive)	> 100 µM (inactive)	59 µM (inactive)	> 100 µM (inactive)	18.7 µM (inactive)
C=CCOc1ccc(C2(c3ccc(OCC=C)cc3)C(=O)Nc3ccccc32)cc1	> 10 µM (inactive)	> 10 µM (inactive)	> 10 µM (inactive)	7.19 µM (inactive)	> 10 µM (inactive)	> 10 µM (inactive)	> 10 µM (inactive)	> 10 µM (inactive)	1.46 µM (inactive)	> 10 µM (inactive)	> 10 µM (inactive)	> 10 µM (inactive)	> 10 µM (inactive)	> 10 µM (inactive)	3.4 µM (inactive)	> 10 µM (inactive)	> 10 µM (inactive)	> 10 µM (inactive)	> 10 µM (inactive)
CCCCn1c(C)c2c(c1C)C(=O)N(CCN1CCN(c3ccccc3Cl)CC1)C2=O	> 10 µM (inactive)	38.2 µM (inactive)	38.1 µM (inactive)	35 µM (inactive)	18.6 µM (inactive)	29 µM (inactive)	25.4 µM (inactive)	16.4 µM (inactive)	> 100 µM (inactive)	31.6 µM (inactive)	31.5 µM (inactive)	21.9 µM (inactive)	22 µM (inactive)	46.7 µM (inactive)	51.2 µM (inactive)	28.4 µM (inactive)	17.6 µM (inactive)		19.9 µM (inactive)
